In the test the test system is Endogenous Huntingtin Protein. The test can be described thus: Endogenous Huntingtin Protein Assay (ELISA-based Meso Scale Discovery electrochemiluminescence). In kind it is cell-based. To be noted: MSD electrochemiluminescence, Table 1. The gist of the method:
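Sandwich MSD electrochemiluminescence immunoassay. Capture used MW1 (expanded polyglutamine) or MAB2166 antibody coated at 1 μg/mL overnight at 4 °C. Samples were bound overnight at 4 °C, then a rabbit monoclonal detection antibody and SULFO-TAG anti-rabbit, each at 0.25 μg/mL, were applied for 1 h at room temperature.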
Molecule `CN1CCC2(CC1)CN(c1ncc(-c3ccc(-c4nnn(C)n4)cc3O)nn1)C2` [Cpd 251, 2-[3-(7-methyl-2,7-diazaspiro[3.5]nonan-2-yl)-1,2,4-triazin-6-yl]-5-(2-methyl-2H-tetrazol-5-yl)phenol] yielded an IC50 of 0.1 to 0.5 µM. Under `CN(c1cnc(-c2ccc(-c3cnn(C)c3)cc2O)nn1)C1CC(C)(C)NC(C)(C)C1` [Cpd 196, 5-(1-methyl-1H-pyrazol-4-yl)-2-{6-[methyl(2,2,6,6-tetramethylpiperidin-4-yl)amino]-1,2,4-triazin-3-yl}phenol] stands at most 0.1 µM; under `Cn1ncc(-c2ccc(-c3cnc(NC4CC(C)(C)NC(C)(C)C4)nn3)c(O)c2)n1` [Cpd 266, 5-(2-methyl-2H-1,2,3-triazol-4-yl)-2-{3-[(2,2,6,6-tetramethylpiperidin-4-yl)amino]-1,2,4-triazin-6-yl}phenol], at most 0.1 µM; under `CC1(C)C[C@H](Nc2ncc(-c3ccc(-c4ncco4)cc3O)nn2)[C@H](F)C(C)(C)N1` [Cpd 288, 2-(3-{[(3S,4S)-3-fluoro-2,2,6,6-tetramethylpiperidin-4-yl]amino}-1,2,4-triazin-6-yl)-5-(1,3-oxazol-2-yl)phenol], at most 0.1 µM. Regarding `CN(c1ncc(-c2ccc(-c3ccccn3)cc2O)nn1)C1CC(C)(C)NC(C)(C)C1` [Cpd 71, 2-{3-[methyl(2,2,6,6-tetramethylpiperidin-4-yl)amino]-1,2,4-triazin-6-yl}-5-(pyridin-2-yl)phenol], the IC50 is at most 0.1 µM.

Regarding `CNc1cc(-c2ccc(-c3cnc(N4CCC(NC)C4)nn3)c(O)c2)ncn1` (centres unmarked) [Cpd 380, 5-[6-(methylamino)pyrimidin-4-yl]-2-{3-[3-(methylamino)pyrrolidin-1-yl]-1,2,4-triazin-6-yl}phenol], the IC50 was at most 0.1 µM. To `Oc1cc(-c2c[nH]nc2F)ccc1-c1cnc(N2CC[C@H]3NCC[C@H]3C2)nn1` [Cpd 150, 5-(3-fluoro-1H-pyrazol-4-yl)-2-{3-[(3aS,7aR)-octahydro-5H-pyrrolo[3,2-c]pyridin-5-yl]-1,2,4-triazin-6-yl}phenol] belongs at most 0.1 µM. In the case of `COc1cnn(-c2ccc(-c3cnc(N(C)C4CC(C)(C)NC(C)(C)C4)nn3)c(O)c2)c1` [Cpd 55, 5-(4-methoxy-1H-pyrazol-1-yl)-2-{3-[methyl(2,2,6,6-tetramethylpiperidin-4-yl)amino]-1,2,4-triazin-6-yl}phenol], the IC50 was at most 0.1 µM. The molecule `CC(C)NC1CCN(c2ncc(-c3ccc(-c4ccc5c(cnn5C)c4)cc3O)nn2)C1` (centres unmarked) [Cpd 330, 5-(1-methyl-1H-indazol-5-yl)-2-(3-{3-[(propan-2-yl)amino]pyrrolidin-1-yl}-1,2,4-triazin-6-yl)phenol] came in with a 50% inhibitory concentration (IC50) of 1 to 3 µM. `Cn1ccc(-c2ccc(-c3cnc(NC4CC(C)(C)NC(C)(C)C4)nn3)c(O)c2)n1` [Cpd 253, 5-(1-methyl-1H-pyrazol-3-yl)-2-{3-[(2,2,6,6-tetramethylpiperidin-4-yl)amino]-1,2,4-triazin-6-yl}phenol] displayed an IC50 of at most 0.1 µM.

In the case of `CN1[C@@H]2CCC[C@H]1CC(Nc1ncc(-c3ccc(-c4cn[nH]c4)cc3O)nn1)C2` (stereo partly drawn) [Cpd 77, 2-{3-{[(1R,3s,5S)-9-methyl-9-azabicyclo[3.3.1]nonan-3-yl]amino}-1,2,4-triazin-6-yl)-5-(1H-pyrazol-4-yl)phenol], the IC50 was at most 0.1 µM. Under `COc1cnc(-c2ccc(-c3cnc(N(C)C4CC(C)(C)NC(C)(C)C4)nn3)c(O)c2)nn1` [Cpd 144, 5-(6-methoxy-1,2,4-triazin-3-yl)-2-{3-[methyl(2,2,6,6-tetramethylpiperidin-4-yl)amino]-1,2,4-triazin-6-yl}phenol] stands at most 0.1 µM.

Take `Cc1ncc(-c2ccc(-c3cnc(N4CCC(NC(C)C)C4)nn3)c(O)c2)o1` (stereo not drawn) [Cpd 289, 5-(2-methyl-1,3-oxazol-5-yl)-2-(3-{3-[(propan-2-yl)amino]pyrrolidin-l-yl}-1,2,4-triazin-6-yl)phenol]: the IC50 was at most 0.1 µM. To `Oc1cc(-c2cn[nH]c2)ccc1-c1cnc(N2CC3(CNC3)C2)nn1` [Cpd 118, 2-[3-(2,6-diazaspiro[3.3]heptan-2-yl)-1,2,4-triazin-6-yl]-5-(1H-pyrazol-4-yl)phenol] belongs 0.1 to 0.5 µM. For `CN(c1ncc(-c2ccc(-c3ccn(C)n3)c(O)c2O)nn1)C1CC(C)(C)NC(C)(C)C1` [Cpd 368, 3-(1-methyl-1H-pyrazol-3-yl)-6-{3-[methyl(2,2,6,6-tetramethylpiperidin-4-yl)amino]-1,2,4-triazin-6-yl}benzene-1,2-diol], the 50% inhibitory concentration (IC50) is 0.1 to 0.5 µM.

In the case of `Oc1cc(-c2cn[nH]c2)ccc1-c1cnc(N2CCC(NC3CCCC3)C2)nn1` (stereo not drawn) [Cpd 357, 2-{3-[3-(cyclopentylamino)pyrrolidin-l-yl]-1,2,4-triazin-6-yl}-5-(1H-pyrazol-4-yl)phenol], the half-inhibitory concentration (IC50) is at most 0.1 µM. The molecule `OCCCNC1CCN(c2ncc(-c3ccc(-c4cn[nH]c4)cc3O)nn2)C1` (centres unmarked) [Cpd 371, 2-(3-{3-[(3-hydroxypropyl)amino]pyrrolidin-1-yl}-1,2,4-triazin-6-yl)-5-(1H-pyrazol-4-yl)phenol] gave an IC50 of at most 0.1 µM. For `CN(c1ncc(-c2ccc(-n3cccn3)cc2O)nn1)C1CC(C)(C)NC(C)(C)C1` [Cpd 17, 2-{3-[methyl(2,2,6,6-tetramethylpiperidin-4-yl)amino]-1,2,4-triazin-6-yl}-5-(1H-pyrazol-1-yl)phenol], the IC50 lay within 0.1 to 0.5 µM. Under `CC(C)NC1(C)CCN(c2ncc(-c3ccc(-c4cnn(C)c4)cc3O)nn2)C1` (centres unmarked) [Cpd 422] stands at most 0.1 µM; under `CC(C)(C)NC1CCN(c2ncc(-c3ccc(-c4cn[nH]c4)c(F)c3O)nn2)C1` (centres unmarked) [Cpd 418, 6-{3-[3-(tert-butylamino)pyrrolidin-1-yl]-1,2,4-triazin-6-yl}-2-fluoro-3-(1H-pyrazol-4-yl)phenol], at most 0.1 µM. As to `COc1cc(-c2ccc(-c3cnc(N4CC5(CCN(C)CC5)C4)nn3)c(O)c2)ncn1` [Cpd 243, 5-(6-methoxypyrimidin-4-yl)-2-[3-(7-methyl-2,7-diazaspiro[3.5]nonan-2-yl)-1,2,4-triazin-6-yl]phenol], the half-inhibitory concentration (IC50) was at most 0.1 µM.

The molecule `CC1(C)C[C@H](Nc2ncc(-c3ccc(-c4cn5ccnc5cn4)cc3O)nn2)[C@H](F)C(C)(C)N1` [Cpd 248, 2-(3-{[(3S,4S)-3-fluoro-2,2,6,6-tetramethylpiperidin-4-yl]amino}-1,2,4-triazin-6-yl)-5-(imidazo[1,2-a]pyrazin-6-yl)phenol] yielded an IC50 of at most 0.1 µM. Under `CN(c1ncc(-c2ccc(-c3ccc4c(c3)OCO4)cc2O)nn1)C1CC(C)(C)NC(C)(C)C1` [Cpd 188, 5-(2H-1,3-benzodioxo1-5-yl)-2-{3-[methyl(2,2,6,6-tetramethylpiperidin-4-yl)amino]-1,2,4-triazin-6-yl}phenol] stands at most 0.1 µM; under `CNC1CCN(c2ncc(-c3ccc(-n4nccn4)cc3O)nn2)C1` (centres unmarked) [Cpd 218, 2-{3-[3-(methylamino)pyrrolidin-1-yl]-1,2,4-triazin-6-yl}-5-(2H-1,2,3-triazol-2-yl)phenol], 0.1 to 0.5 µM; under `Oc1cc(-c2cn[nH]c2)ccc1-c1cnc(N2CCNCC2)nn1` [Cpd 328, 2-[3-(piperazin-1-yl)-1,2,4-triazin-6-yl]-5-(1H-pyrazol-4-yl)phenol], 0.1 to 0.5 µM. In the case of `Oc1cc(-c2cn[nH]c2)ccc1-c1cnc(N2CCC(CNC3CCCC3)C2)nn1` (centres unmarked) [Cpd 386, 2-(3-{3-[(cyclopentylamino)methyl]pyrrolidin-1-yl}-1,2,4-triazin-6-yl)-5-(1H-pyrazol-4-yl)phenol], the IC50 fell in the range of 0.1 to 0.5 µM.

`CC(C)(CF)NC1CCN(c2ncc(-c3ccc(-c4cn[nH]c4)cc3O)nn2)C1` (centres unmarked) [Cpd 316, 2-(3-{3-[(1-fluoro-2-methylpropan-2-yl)amino]pyrrolidin-1-yl}-1,2,4-triazin-6-yl)-5-(1H-pyrazol-4-yl)phenol] came in with an IC50 of at most 0.1 µM. In turn, `CC1(C)CC(Nc2ncc(-c3ccc(-c4ncco4)cc3O)nn2)CC(C)(C)N1` [Cpd 352, 5-(1,3-oxazol-2-yl)-2-{3-[(2,2,6,6-tetramethylpiperidin-4-yl)amino]-1,2,4-triazin-6-yl}phenol] had an IC50 of at most 0.1 µM. The molecule `Cn1cnc(-c2ccc(-c3cnc(N[C@H]4CC(C)(C)NC(C)(C)[C@H]4F)nn3)c(O)c2)cc1=O` [Cpd 246, 6-[4-(3-{[(3S,4S)-3-fluoro-2,2,6,6-tetramethylpiperidin-4-yl]amino}-1,2,4-triazin-6-yl)-3-hydroxyphenyl]-3-methylpyrimidin-4(3H)-one] yielded a concentration for half-maximal inhibition (IC50) of at most 0.1 µM. Under `CN(c1ncc(-c2ccc(-c3ccnnc3)cc2O)nn1)C1CC(C)(C)NC(C)(C)C1` [Cpd 60, 2-{3-[methyl(2,2,6,6-tetramethylpiperidin-4-yl)amino]-1,2,4-triazin-6-yl}-5-(pyridazin-4-yl)phenol] stands at most 0.1 µM; under `Oc1cc(-c2cn[nH]c2)ccc1-c1cnc(N2CCC3(CNC3)C2)nn1` [Cpd 110, 2-[3-(2,6-diazaspiro[3.4]octan-6-yl)-1,2,4-triazin-6-yl]-5-(1H-pyrazol-4-yl)phenol], 0.1 to 0.5 µM.

For `CC(C)NC1CCN(c2ncc(-c3ccc(-c4cnc5c(cnn5C)c4)cc3O)nn2)C1` (centres unmarked) [Cpd 307, 5-(1-methyl-1H-pyrazolo[3,4-b]pyridin-5-yl)-2-(3-{3-[(propan-2-yl)amino]pyrrolidin-1-yl}-1,2,4-triazin-6-yl)phenol], the IC50 is above 0.5 µM. Under `CC1(C)CC(Nc2cnc(-c3ccc(-n4nccn4)cc3O)nn2)CC(C)(C)N1` [Cpd 401, 2-{6-[(2,2,6,6-tetramethylpiperidin-4-yl)amino]-1,2,4-triazin-3-yl}-5-(2H-1,2,3-triazol-2-yl)phenol] stands at most 0.1 µM; under `COc1cc(-c2ccc(-c3cnc(N(C)C4CC(C)(C)NC(C)(C)C4)nn3)c(O)c2)ccn1` [Cpd 3, 5-(2-methoxypyridin-4-yl)-2-{3-[methyl(2,2,6,6-tetramethylpiperidin-4-yl)amino]-1,2,4-triazin-6-yl}phenol], at most 0.1 µM. To `CC1(NC2CCN(c3ncc(-c4ccc(-c5cn[nH]c5)cc4O)nn3)C2)CC1` (centres unmarked) [Cpd 340, 2-(3-{3-[(1-methylcyclopropyl)amino]pyrrolidin-1-yl}-1,2,4-triazin-6-yl)-5-(1H-pyrazol-4-yl)phenol] belongs at most 0.1 µM.

Source of the values: patent US11780839B2, “Compounds for treating Huntington's disease” (PTC THERAPEUTICS, INC., priority 2018, dated 2023).
